{
  "source": "patent US20240016748A1",
  "about": "“DIRECT DELIVERY OF VITAMINS TO INHIBIT MICROBIAL PATHOGENS” (DSM IP ASSETS B.V., priority 2020, published 2024)",
  "key": {"Salmonella enteritidis": {"system": "Salmonella enteritidis", "experiment": "Short-term pathogen challenge test, Salmonella enteritidis", "assay_type": "cell-based", "conditions": "positive control, 125 ppm; 48 h colonic incubation"}, "[1]": {"system": "adherent-invasive E. coli (AIEC)", "experiment": "Short-term pathogen challenge test, AIEC", "assay_type": "cell-based, Escherichia coli", "conditions": "positive control, 125 ppm; 48 h colonic incubation"}},
  "data": [
    {"smiles": "O=C(O)c1cn(C2CC2)c2cc(N3CCNCC3)c(F)cc2c1=O", "note": "[ciprofloxacin]", "values": [
      {"measurement": "abundance of Salmonella enteritidis", "setting": "Salmonella enteritidis", "result": "strongly decreased abundance of Salmonella enteritidis"},
      {"measurement": "abundance of AIEC", "setting": "[1]", "result": "decreased abundance of AIEC"}
    ]}
  ]
}
